Among the test systems are DU-145 prostate; HT29 colon; MCF7 breast; NCI-H460 lung; RXF 393 renal; SF-539 CNS; SK-OV-3 ovarian; SN12C renal; U251 CNS; UACC-257 melanoma.
Common to all, as to experiment: DTP human tumour cell line panel, 48 h

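Compound exposure: 48 hours, 5 concentrations, 96-well plates. GI50: concentration for 50% inhibition of growth. TGI denotes the concentration required for complete inhibition of growth.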 Bounds are passed on as bounds.

With `N#Cc1ccc2c(c1)C(=O)c1c-2n(CCCCl)c(=O)c2cc([N+](=O)[O-])ccc12`, the GI50 (in general, the concentration that inhibits growth by half) with DU-145 prostate was 2.74 µM; in the experiment with HT29 colon it was 7.93 µM; in the experiment with MCF7 breast it was 0.38 µM; in the experiment with NCI-H460 lung it was 0.395 µM; in the experiment with RXF 393 renal it was 11.9 µM; in the experiment on SF-539 CNS it was 2.62 µM. Further, the GI50 in the experiment on SK-OV-3 ovarian was 5.29 µM; in the experiment with SN12C renal it was 5.93 µM; in the experiment on U251 CNS, 1.63 µM; in the experiment with UACC-257 melanoma it was over 100 µM. The TGI (usually the concentration at which net growth stops) in the experiment with DU-145 prostate was 23.9 µM; in the experiment on HT29 colon, over 100 µM; in the experiment on MCF7 breast, over 100 µM; with NCI-H460 lung, over 100 µM; with RXF 393 renal it was 37.7 µM; in the experiment on SF-539 CNS, 10.5 µM. Also, the TGI in the experiment with SK-OV-3 ovarian is 24.7 µM; in the experiment with SN12C renal, over 100 µM; with U251 CNS it was 16.4 µM; with UACC-257 melanoma it was over 100 µM.
In the case of `CC(=C/C=C/C=C(C)\C=C\C=C(\C)C(=O)O)/C=C/C=C(/C)C(=O)O`, the TGI in the experiment with DU-145 prostate, in the experiment on HT29 colon, in the experiment with MCF7 breast, in the experiment on NCI-H460 lung, in the experiment on RXF 393 renal and in the experiment on SF-539 CNS was over 100 µM each time. Besides, the TGI in the experiment with SK-OV-3 ovarian, with SN12C renal, in the experiment on U251 CNS and with UACC-257 melanoma was over 100 µM each time.
`Cc1nc2sc(C(=O)Nc3cccc4ccccc34)c(N)c2cc1C(O)c1ccccc1` (stereo not given): the GI50 in the experiment with DU-145 prostate is 0.0804 µM; in the experiment with HT29 colon, 0.038 µM; in the experiment with MCF7 breast, 0.0373 µM; in the experiment with NCI-H460 lung, 0.0381 µM; with RXF 393 renal it was 0.0307 µM; in the experiment on SF-539 CNS, 0.0341 µM. In addition, the GI50 with SK-OV-3 ovarian was 0.0702 µM; with SN12C renal, 0.0971 µM; in the experiment with U251 CNS, 0.0499 µM; with UACC-257 melanoma it was 1.5 µM. Besides, the TGI with DU-145 prostate was 6.67 µM; in the experiment with HT29 colon it was 14.1 µM; with MCF7 breast it was 13.4 µM; with NCI-H460 lung it was 0.449 µM; with RXF 393 renal, 24.7 µM; in the experiment on SF-539 CNS, 0.29 µM. Moreover, the TGI with SK-OV-3 ovarian is 67.4 µM; in the experiment with SN12C renal it was 9.49 µM; in the experiment on U251 CNS it was 13.5 µM; in the experiment on UACC-257 melanoma it was 26.4 µM.
In the case of `COc1ccc(-c2cc(-c3cccn3C)c(C#N)c(=O)[nH]2)cc1OC`, the GI50 with DU-145 prostate is over 100 µM; with HT29 colon, over 100 µM; in the experiment on MCF7 breast it was over 100 µM; with NCI-H460 lung it was over 100 µM; with RXF 393 renal it was over 100 µM; in the experiment with SF-539 CNS, 66.8 µM. Further, the GI50 with SK-OV-3 ovarian, in the experiment on SN12C renal, in the experiment on U251 CNS and in the experiment with UACC-257 melanoma was over 100 µM in each case. Further, the TGI in the experiment with DU-145 prostate, in the experiment with HT29 colon, in the experiment on MCF7 breast, with NCI-H460 lung, in the experiment on RXF 393 renal and in the experiment with SF-539 CNS was over 100 µM each time. Also, the TGI with SK-OV-3 ovarian, in the experiment on SN12C renal, in the experiment on U251 CNS and in the experiment on UACC-257 melanoma was over 100 µM throughout.
For the molecule `C/C(=N\Nc1cc(C)c2ccccc2n1)c1ccccn1`, the GI50 was 0.107 µM with DU-145 prostate; 0.0408 µM in the experiment on HT29 colon; 0.0894 µM in the experiment on MCF7 breast; under 0.0387 µM in the experiment with NCI-H460 lung; 0.29 µM in the experiment on RXF 393 renal; 0.0778 µM with SF-539 CNS. Moreover, the 50% growth inhibitory concentration (GI50) with SK-OV-3 ovarian is 0.119 µM; in the experiment on SN12C renal it was 0.0762 µM; in the experiment on U251 CNS it was 0.0368 µM; in the experiment with UACC-257 melanoma it was 0.0874 µM. Further, the TGI in the experiment with DU-145 prostate amounted to 12.4 µM; in the experiment with HT29 colon, 1.8 µM; in the experiment with MCF7 breast it was 1.16 µM; in the experiment with NCI-H460 lung it was 1.17 µM; in the experiment with RXF 393 renal, 1.82 µM; in the experiment with SF-539 CNS, 0.693 µM. The TGI was found to be 8.38 µM in the experiment on SK-OV-3 ovarian, 7.57 µM in the experiment with SN12C renal, 1.16 µM in the experiment on U251 CNS and 0.452 µM in the experiment on UACC-257 melanoma.
In the case of `CC(C)C[C@H](NC(=O)Cn1ccc(NCc2ccccc2)cc1=O)B(O)O`, the GI50 was 5.48 µM with DU-145 prostate; 0.814 µM in the experiment on HT29 colon; 0.413 µM in the experiment with MCF7 breast; 6.19 µM in the experiment on NCI-H460 lung; 0.346 µM in the experiment on RXF 393 renal; 0.296 µM in the experiment on SF-539 CNS. Moreover, the GI50 is 13.7 µM in the experiment on SK-OV-3 ovarian, 3.71 µM in the experiment on SN12C renal, 6.3 µM in the experiment on U251 CNS and 0.961 µM in the experiment on UACC-257 melanoma. The TGI in the experiment with DU-145 prostate is over 100 µM; with HT29 colon, 8.41 µM; in the experiment with MCF7 breast it was over 100 µM; in the experiment on NCI-H460 lung it was 37.6 µM; in the experiment on RXF 393 renal it was 1.31 µM; with SF-539 CNS it was 1.13 µM. The TGI in the experiment on SK-OV-3 ovarian was over 100 µM; with SN12C renal it was 54.8 µM; with U251 CNS it was over 100 µM; with UACC-257 melanoma it was 4.73 µM.
As for `CCCN(CCC)c1ccc(/C=C/c2ccc3cc(OCC)ccc3n2)cc1`, the GI50 in the experiment with DU-145 prostate is over 100 µM; in the experiment on HT29 colon, 15 µM; with MCF7 breast, over 100 µM; in the experiment on NCI-H460 lung, 63.2 µM; in the experiment with RXF 393 renal it was 5.23 µM; in the experiment with SF-539 CNS it was over 100 µM. The GI50 was over 100 µM in the experiment with SK-OV-3 ovarian, over 100 µM in the experiment on SN12C renal, 48.5 µM with U251 CNS and over 100 µM in the experiment on UACC-257 melanoma. Also, the TGI was over 100 µM with DU-145 prostate; over 100 µM in the experiment with HT29 colon; over 100 µM with MCF7 breast; over 100 µM in the experiment on NCI-H460 lung; 64.1 µM with RXF 393 renal; over 100 µM in the experiment on SF-539 CNS. The TGI in the experiment with SK-OV-3 ovarian, in the experiment on SN12C renal, in the experiment with U251 CNS and in the experiment with UACC-257 melanoma was over 100 µM in each case.
